The structures appear in SMILES notation.

System in the first experiment: not listed separately
The experiment in a line: Inhibition of bovine PDE3 by scintillation proximity assay. Also noted: species or system Bos taurus. (Scintillation proximity formats need no separation of bound from free tracer.)
A word on the pIC50: it is −log10 of the IC50, conventionally taken in molar units. A low value points to a high IC50. Take `CC(C)(C)C1CCc2c(sc(NC(=O)c3ccncc3)c2C(N)=O)C1` (stereo unspecified): the pIC50 is < 5.

The target of another experiment is cGMP-specific 3',5'-cyclic phosphodiesterase (Homo sapiens, UniProt O76074). As to the kind of experiment: Inhibition of human PDE5 by scintillation proximity assay.
For orientation: IC50 means the point on the concentration scale where inhibition reaches its midpoint. Read a low IC50 as inhibition by little substance. Take `CC(C)(C)C1CCc2c(sc(NC(=O)c3ccncc3)c2C(N)=O)C1` (stereo unspecified): the 50% inhibitory concentration (IC50) is > 10000 nM.

In another experiment the target is 3',5'-cyclic-AMP phosphodiesterase 4B (Homo sapiens, UniProt Q07343). As to the kind of experiment: Inhibition of PDE4B by luciferase-coupled assay.
Chain of 3',5'-cyclic-AMP phosphodiesterase 4B (Q07343 whole entry): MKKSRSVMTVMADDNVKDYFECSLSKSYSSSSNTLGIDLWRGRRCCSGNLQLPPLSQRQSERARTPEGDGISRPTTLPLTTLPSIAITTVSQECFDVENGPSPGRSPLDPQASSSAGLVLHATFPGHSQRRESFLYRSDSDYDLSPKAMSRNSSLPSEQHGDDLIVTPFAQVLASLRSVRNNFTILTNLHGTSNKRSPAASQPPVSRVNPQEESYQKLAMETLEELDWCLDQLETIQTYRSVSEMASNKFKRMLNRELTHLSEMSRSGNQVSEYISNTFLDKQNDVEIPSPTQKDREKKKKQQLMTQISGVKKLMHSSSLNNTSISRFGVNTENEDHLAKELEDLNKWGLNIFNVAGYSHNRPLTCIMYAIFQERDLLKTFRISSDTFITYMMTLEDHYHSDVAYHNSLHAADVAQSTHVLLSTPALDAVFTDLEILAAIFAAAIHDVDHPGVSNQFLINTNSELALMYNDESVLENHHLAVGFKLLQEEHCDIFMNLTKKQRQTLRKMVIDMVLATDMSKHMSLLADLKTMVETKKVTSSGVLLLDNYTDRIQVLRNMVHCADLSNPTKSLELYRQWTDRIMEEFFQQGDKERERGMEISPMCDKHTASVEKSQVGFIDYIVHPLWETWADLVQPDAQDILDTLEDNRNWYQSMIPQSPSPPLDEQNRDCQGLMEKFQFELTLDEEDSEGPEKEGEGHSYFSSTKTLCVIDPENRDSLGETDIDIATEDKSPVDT
The compound `CC1CCc2c(sc(NC(=O)c3cccc([N+](=O)[O-])c3)c2C(N)=O)C1` (stereo unspecified) gave a half-inhibitory concentration (IC50) of 631 nM.

Turning to `CC(C)(C)C1CCc2c(sc(NC(=O)c3ccncc3)c2C(N)=O)C1` (stereo unspecified), the IC50 was 200 nM.

Take `CC1CCCc2sc(NC(=O)c3ccccc3[N+](=O)[O-])c(C(N)=O)c21` (stereo unspecified): it took 5010 nM to reach half-maximal inhibition (IC50). Compared with the last compound, the IC50 is about 25-fold higher.

Consider `CC1(C)CCc2c(sc(NC(=O)c3ccccc3[N+](=O)[O-])c2C(N)=O)C1`, for which the concentration for half-maximal inhibition (IC50) is 50.1 nM.

In turn, `Cc1cccc(C)c1C1CCCc2sc(NC(=O)c3ccccc3[N+](=O)[O-])c(C(N)=O)c21` (stereo unspecified) showed an IC50 of 5010 nM.

In the case of `CC(C)(C)C1CCc2sc(NC(=O)c3ccccc3[N+](=O)[O-])c(C(N)=O)c2C1` (stereo unspecified), the IC50 is 1260 nM.

Consider `CC1CCc2c(sc(NC(=O)c3ccc([N+](=O)[O-])cc3)c2C(N)=O)C1` (stereo unspecified), for which the IC50 was > 2510 nM.

As to `NC(=O)c1c(NC(=O)c2ccccc2[N+](=O)[O-])sc2c1CCCC2`, the midpoint of inhibition, the IC50, lay at 1260 nM.

In turn, `CC(C)(C)C1CCc2c(sc(NC(=O)c3ccccc3[N+](=O)[O-])c2C(N)=O)C1` (stereo unspecified) gave an IC50 of 25.1 nM.

`CCCCCC1CCc2c(sc(NC(=O)c3ccccc3[N+](=O)[O-])c2C(N)=O)C1` (stereo unspecified) showed an IC50 of 100 nM.

Consider `CCC1CCc2c(sc(NC(=O)c3ccccc3[N+](=O)[O-])c2C(N)=O)C1` (stereo unspecified), for which the IC50 is 10 nM.

As for `CNC(=O)c1c(NC(=O)c2c(F)cccc2F)sc2c1CCC(C(C)(C)C)C2` (stereo unspecified), the IC50 is > 10000 nM.

For `CC(C)(C)C1CCc2c(sc(NC(=O)c3c(F)cccc3F)c2C(N)=O)C1` (stereo unspecified), the IC50 was 79.4 nM.

`CC1CCc2sc(NC(=O)c3ccccc3[N+](=O)[O-])c(C(N)=O)c2C1` (stereo unspecified) had a half-inhibitory concentration (IC50) of 2000 nM.

For the compound `NC(=O)c1c(NC(=O)c2ccccc2[N+](=O)[O-])sc2c1CCC(c1ccccc1)C2` (stereo unspecified), the IC50 is 398 nM. Compared with the last compound, the IC50 is about 5-fold lower.

For the next experiment, the target named is 3',5'-cyclic-AMP phosphodiesterase 4D (Homo sapiens, UniProt Q08499). The experiment in a line: Inhibition of PDE4D by luciferase-coupled assay.
Chain of 3',5'-cyclic-AMP phosphodiesterase 4D (Q08499 whole entry): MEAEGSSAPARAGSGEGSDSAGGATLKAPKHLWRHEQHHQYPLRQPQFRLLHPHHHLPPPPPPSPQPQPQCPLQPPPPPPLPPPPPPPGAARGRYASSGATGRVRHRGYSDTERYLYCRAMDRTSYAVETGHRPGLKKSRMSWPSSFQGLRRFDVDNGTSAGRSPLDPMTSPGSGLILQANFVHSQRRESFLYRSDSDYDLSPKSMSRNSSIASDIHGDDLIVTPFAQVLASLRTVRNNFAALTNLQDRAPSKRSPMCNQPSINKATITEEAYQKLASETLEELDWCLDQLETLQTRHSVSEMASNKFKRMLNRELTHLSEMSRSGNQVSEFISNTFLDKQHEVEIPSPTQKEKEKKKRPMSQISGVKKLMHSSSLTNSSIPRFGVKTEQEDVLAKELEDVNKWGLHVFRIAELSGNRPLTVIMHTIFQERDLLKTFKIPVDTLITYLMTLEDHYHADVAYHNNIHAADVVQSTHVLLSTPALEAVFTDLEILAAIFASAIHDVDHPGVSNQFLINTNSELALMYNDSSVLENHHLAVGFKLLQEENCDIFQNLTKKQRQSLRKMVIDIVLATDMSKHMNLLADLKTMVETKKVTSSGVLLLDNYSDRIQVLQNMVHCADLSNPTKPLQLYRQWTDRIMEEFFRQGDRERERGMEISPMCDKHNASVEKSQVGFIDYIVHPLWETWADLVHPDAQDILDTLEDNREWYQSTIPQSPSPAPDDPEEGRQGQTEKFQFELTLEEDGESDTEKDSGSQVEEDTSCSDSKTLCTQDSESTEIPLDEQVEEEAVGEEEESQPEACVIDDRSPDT
Regarding `CC1CCc2c(sc(NC(=O)c3cccc([N+](=O)[O-])c3)c2C(N)=O)C1` (stereo unspecified), the IC50 was > 2510 nM.

Compound `CC(C)(C)C1CCc2c(sc(NC(=O)c3ccncc3)c2C(N)=O)C1` (stereo unspecified) gave an IC50 of 316 nM. This lies in the sub-micromolar range.

Take `CC1CCCc2sc(NC(=O)c3ccccc3[N+](=O)[O-])c(C(N)=O)c21` (stereo unspecified): the IC50 was 31600 nM.

As to `CC1(C)CCc2c(sc(NC(=O)c3ccccc3[N+](=O)[O-])c2C(N)=O)C1`, inhibition was half-maximal at 398 nM (IC50).

As to `Cc1cccc(C)c1C1CCCc2sc(NC(=O)c3ccccc3[N+](=O)[O-])c(C(N)=O)c21` (stereo unspecified), inhibition was half-maximal at 2510 nM (IC50).

For the compound `CC(C)(C)C1CCc2sc(NC(=O)c3ccccc3[N+](=O)[O-])c(C(N)=O)c2C1` (stereo unspecified), the midpoint of inhibition, the IC50, lay at 6310 nM. Against the preceding compound, the IC50 is about 2.5-fold higher.

Consider `CC1CCc2c(sc(NC(=O)c3ccc([N+](=O)[O-])cc3)c2C(N)=O)C1` (stereo unspecified), for which the half-inhibitory concentration (IC50) is > 2510 nM.

In turn, `NC(=O)c1c(NC(=O)c2ccccc2[N+](=O)[O-])sc2c1CCCC2` showed an IC50 of 6310 nM. In other words, the single-digit micromolar range.

The compound `CC(C)(C)C1CCc2c(sc(NC(=O)c3ccccc3[N+](=O)[O-])c2C(N)=O)C1` (stereo unspecified) gave an IC50 of 126 nM.

Compound `CCCCCC1CCc2c(sc(NC(=O)c3ccccc3[N+](=O)[O-])c2C(N)=O)C1` (stereo unspecified) gave a half-maximal inhibitory concentration (IC50) of 2510 nM. Against the preceding compound, the IC50 is about 20-fold higher.

On to `CCC1CCc2c(sc(NC(=O)c3ccccc3[N+](=O)[O-])c2C(N)=O)C1` (stereo unspecified), for which the midpoint of inhibition, the IC50, lay at 126 nM.

`CC1CCc2sc(NC(=O)c3ccccc3[N+](=O)[O-])c(C(N)=O)c2C1` (stereo unspecified): 6310 nM corresponded to half-maximal inhibition (IC50). Against the preceding compound, the IC50 is about 50-fold higher.

`NC(=O)c1c(NC(=O)c2ccccc2[N+](=O)[O-])sc2c1CCC(c1ccccc1)C2` (stereo unspecified) gave an IC50 of 1580 nM.

System in a further experiment: not listed separately
The experiment in a line: Selectivity for PDE4B over PDE4D.
On to `CCC1CCc2c(sc(NC(=O)c3ccccc3[N+](=O)[O-])c2C(N)=O)C1` (stereo unspecified), for which the Selectivity Index amounted to 10.

These data come from ChEMBL document CHEMBL1155252 (Bioorg Med Chem, 2009).
